{
  "source": "patent US20040038369A1",
  "about": "“Airway-specific trypsin-like enzymes and method of using the same” (priority 2000, published 2004)",
  "tested_on": "EGF on surface of H292 cell membrane",
  "assay": "Surface antigen analysis (FACS) of EGF on NCI-H292 cell membrane",
  "assay_type": "cell-based, human",
  "method": "NCI-H292 cells (purchased from ATCC) were cultured on a 10 cm dish in 10% FCS-containing RPMI-1640 until to reach a confluent state, subjected to the replacement of the culture medium by RPMI-1640 containing 0.1% of BSA, and further cultured for 24 hours. The cultured cells were washed with PBS, treated and floated in PBS containing 5 mM of EDTA at 37° C. for five minutes, and then suspended in 0.1%BSA-containing RPMI-1640 in a density of 1.0×10^7 cells/mL.\nThe above-described cell suspension and 0.1% BSA-containing RPMI-1640 containing HAST in a double concentration (600 mU/mL) were mixed with each other in equivalent amounts, respectively, and reacted with each other at 37° C. for 30 minutes (final cell concentration: 5.0×10^6 cells/mL, final HAST concentration: 300 mU/mL). The reaction solution was mixed with ice-cooled 1% FCS-containing PBS in a volume of 5 times that of the reaction solution to stop the reaction, and the treated solution was then supplied for a surface antigen analysis.\nThe cells subjected to the prescribed treatments were suspended in 1% FCS-containing PBS in a density of 1.0×10^7 cells/mL. 100 μL of the prepared cell suspension was mixed with a primary antigen (EGF back ground dyeing: 1 μg of normal mouse IgG1 (produced by R & D Corp.), EGF dyeing: 1 μg of an anti-EGF mouse monoclonal antibody (produced by R & D Corp.), HB-EGF back ground dyeing: free from the primary antigen, HB-EGF dyeing: 2 μg of an anti-HB-EGF goat polyclonal antibody (produced by R & D Corp.)) and reacted on ice for 30 minutes. The reaction product was once washed with 5 mL of 1% FCS-containing PBS, mixed with 2 μg of a secondary antigen (EGF back ground dyeing and EGF dyeing: FITC conjugated F(ab′)2 fragment to mouse IgG (produced by Dako Corp.), HB-EGF back ground dyeing and HB-EGF dyeing: Swine Anti-Goat Ig's Fluorescein Conjugate (produced by KPL Corp.)), and then reacted on ice for 30 minutes. The reaction solution was once washed with 5 mL of 1% FCS-containing PBS, and then mixed with Cell Fix (produced by Becton Dickinson Corp.) to immobilize the cells. The expression of the surface antigen was assayed with FACS Calibur (produced by Becton Dickinson Corp.) and analyzed with Cell Quest (produced by Becton Dickinson Corp.). Average fluorescence intensities were shown in the next table as the indicators of expression intensities.\nHAST (600 mU/mL) was reacted with leupeptin (10 μM) or BB1101 (5 μM) in 0.1% BSA-containing RPMI-1640 on ice for 30 minutes, and the reaction solution was mixed with the equivalent amount of a cell suspension preliminarily treated with leupeptin (10 μM) or BB1101 (5 μM) at 37° C. for 30 minutes, and further treated at 37° C. for 30 minutes (final HAST concentration: 300 mU/mL, final leupeptin concentration: 10 μM, final BB1101 concentration: 5 μM, final cell concentration: 5.0×10^6 cells/mL). The reaction solution was mixed with ice-cooled 1% FCS-containing PBS in an amount of five times that of the reaction solution to stop the reaction, and then supplied for the surface antigen analysis.\nThe cells subjected to the prescribed treatments were suspended in 1% FCS-containing PBS in a density of 1.0×10^7 cells/mL. […]",
  "data": [
    {"substance": "HAST: human airway-specific trypsin-like enzyme; propeptide moiety bound to trypsin-like protein moiety via a disulfide bond", "values": [
      {"measurement": "cleavage of proEGF on the surfaces of the cell membranes", "setting": "HAST 300 mU/mL", "value": "cleaved"},
      {"measurement": "EGF expression intensity on the surfaces of the cell membranes (average fluorescence intensity)", "setting": "HAST 300 mU/mL, 37° C., 30 minutes, Back ground 4.62, PBS 7.26", "value": 4.88},
      {"measurement": "EGF expression intensity on the surfaces of the cell membranes (average fluorescence intensity)", "setting": "inhibitor experiment, HAST 300 mU/mL alone, Back ground 8.44, PBS 10.79", "value": 8.33}
    ]}
  ]
}
